According to US20100267561A1, “HERBICIDAL PYRIDAZINONE DERIVATIVES” (priority 2007, published 2010):
Like-named read-outs stand apart in the source and are kept apart here.

What was measured:
Test in all cases: Test B pre-/postemergence plant response
Format in all cases: in vivo
corn (Zea mays) = settings: Zea mays; for Corn plant response rating (crop injury, 0 = no effect, 100 = complete kill) at 31 g/ha: 31 g ai/ha, 100 complete control; for Corn plant response rating (crop injury, 0 = no effect, 100 = complete kill) at 62 g/ha: 62 g ai/ha; for Corn plant response rating (crop injury, 0 = no effect, 100 = complete kill) at 62 g/ha / Corn plant response rating (crop injury, 0 = no effect, 100 = complete kill) at 125 g/ha / Corn plant response rating (crop injury, 0 = no effect, 100 = complete kill) at 250 g/ha: scale 0 to 100; for Corn plant response rating (crop injury, 0 = no effect, 100 = complete kill) at 125 g/ha: 125 g ai/ha; for Corn plant response rating (crop injury, 0 = no effect, 100 = complete kill) at 250 g/ha: 250 g ai/ha
Summary of the method: (§1)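 Preemergence and postemergence (plants 2-18 cm, 1- to 4-leaf stage) applications used test chemicals in a non-phytotoxic solvent with surfactant. Plants were held in a greenhouse 13 to 15 days, then rated visually against controls on a 0-100 scale (0 no effect, 100 complete control).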

[1] = tested on: surinam grass (Brachiaria decumbens); settings: Urochloa decumbens, read-out: Plant response rating, Surinam Grass; for pest or weed control at 31 g/ha: 31 g ai/ha, 100 complete control; for pest or weed control at 62 g/ha: 62 g ai/ha; for pest or weed control at 62 g/ha / pest or weed control at 125 g/ha / pest or weed control at 250 g/ha: scale 0 to 100; for pest or weed control at 125 g/ha: 125 g ai/ha; for pest or weed control at 250 g/ha: 250 g ai/ha
Summary of the method: as §1

[2] = tested on: wheat (Triticum aestivum); settings: Triticum aestivum, read-out: Plant response rating, Wheat; for plant injury at 31 g/ha: 31 g ai/ha, 100 complete control; for plant injury at 62 g/ha: 62 g ai/ha; for plant injury at 62 g/ha / plant injury at 125 g/ha / plant injury at 250 g/ha: scale 0 to 100; for plant injury at 125 g/ha: 125 g ai/ha; for plant injury at 250 g/ha: 250 g ai/ha
Summary of the method: as §1

[3] = tested on: yellow nutsedge (Cyperus esculentus); settings: Cyperus, read-out: Plant response rating, Nutsedge, Yellow; for pest or weed control at 31 g/ha: 31 g ai/ha, 100 complete control; for pest or weed control at 62 g/ha: 62 g ai/ha; for pest or weed control at 250 g/ha: 250 g ai/ha
Summary of the method: as §1

[4] = tested on: blackgrass (Alopecurus myosuroides); settings: for pest or weed control at 31 g/ha: 31 g ai/ha, 100 complete control; for pest or weed control at 62 g/ha: 62 g ai/ha; for pest or weed control at 125 g/ha: 125 g ai/ha
Summary of the method: as §1

[5] = tested on: lambsquarters (Chenopodium album); settings: Chenopodium album, read-out: Plant response rating, Lambsquarters; for pest or weed control at 31 g/ha: 31 g ai/ha, 100 complete control; for pest or weed control at 62 g/ha: 62 g ai/ha; for pest or weed control at 62 g/ha / pest or weed control at 125 g/ha / pest or weed control at 250 g/ha: scale 0 to 100; for pest or weed control at 125 g/ha: 125 g ai/ha; for pest or weed control at 250 g/ha: 250 g ai/ha
Summary of the method: as §1

[6] = post-emergence, Postemergence, scale 0 to 100, 0 no effect
[7] = pre-emergence, Preemergence, 0 to 100 scale, 0 no effect
[8] = post-emergence, Postemergence, scale 0 to 100
[9] = pre-emergence, Preemergence, scale 0 to 100
[10] = Alopecurus myosuroides, post-emergence, Postemergence, scale 0 to 100, read-out: Plant response rating, Blackgrass
[11] = Alopecurus myosuroides, pre-emergence, Preemergence, scale 0 to 100, read-out: Plant response rating, Blackgrass

## Cc1cc(-c2ccc(C(F)(F)F)cc2)nn1-c1c(O)cnn(C)c1=O [Compound 1, 5-hydroxy-2-methyl-4-[5-methyl-3-[4-(trifluoromethyl)phenyl]-1H-pyrazol-1-yl]-3(2H)-pyridazinone]
Corn (Zea mays); [6]
  Corn plant response rating (crop injury, 0 = no effect, 100 = complete kill) at 31 g/ha: 10%
Corn (Zea mays); post-emergence, Postemergence
  Corn plant response rating (crop injury, 0 = no effect, 100 = complete kill) at 62 g/ha: 100%
  Corn plant response rating (crop injury, 0 = no effect, 100 = complete kill) at 125 g/ha: 100%
  Corn plant response rating (crop injury, 0 = no effect, 100 = complete kill) at 250 g/ha: 100%
Corn (Zea mays); [7]
  Corn plant response rating (crop injury, 0 = no effect, 100 = complete kill) at 31 g/ha: 90%
Corn (Zea mays); pre-emergence, Preemergence
  Corn plant response rating (crop injury, 0 = no effect, 100 = complete kill) at 62 g/ha: 95%
  Corn plant response rating (crop injury, 0 = no effect, 100 = complete kill) at 125 g/ha: 100%
  Corn plant response rating (crop injury, 0 = no effect, 100 = complete kill) at 250 g/ha: 100%
[1]; [6]
  pest or weed control at 31 g/ha: 100%
[1]; post-emergence, Postemergence
  pest or weed control at 62 g/ha: 100%
  pest or weed control at 125 g/ha: 100%
  pest or weed control at 250 g/ha: 100%
[1]; [7]
  pest or weed control at 31 g/ha: 100%
[1]; pre-emergence, Preemergence
  pest or weed control at 62 g/ha: 100%
  pest or weed control at 125 g/ha: 100%
  pest or weed control at 250 g/ha: 100%
[2]; [6]
  plant injury at 31 g/ha: 45%
[2]; post-emergence, Postemergence
  plant injury at 62 g/ha: 90%
  plant injury at 125 g/ha: 90%
  plant injury at 250 g/ha: 95%
[2]; [7]
  plant injury at 31 g/ha: 35%
[2]; pre-emergence, Preemergence
  plant injury at 62 g/ha: 45%
  plant injury at 125 g/ha: 90%
  plant injury at 250 g/ha: 95%
[3]; [6]
  pest or weed control at 31 g/ha: 0%
[3]; [8]
  pest or weed control at 62 g/ha: 0%
  pest or weed control at 250 g/ha: 0%
[3]; post-emergence, Postemergence, 125 g ai/ha, scale 0 to 100
  pest or weed control at 125 g/ha: 0%
[3]; [7]
  pest or weed control at 31 g/ha: 0%
[3]; [9]
  pest or weed control at 62 g/ha: 0%
  pest or weed control at 250 g/ha: 0%
[4]; 250 g ai/ha, preemergence, 0-100 scale
  Blackgrass plant response rating: 100
[4]; Alopecurus myosuroides, post-emergence, Postemergence, scale 0 to 100, 0 no effect, read-out: Plant response rating, Blackgrass
  pest or weed control at 31 g/ha: 20%
[4]; [10]
  pest or weed control at 62 g/ha: 90%
  pest or weed control at 125 g/ha: 100%
[4]; Alopecurus myosuroides, post-emergence, Postemergence, 250 g ai/ha, scale 0 to 100, read-out: Plant response rating, Blackgrass
  pest or weed control at 250 g/ha: 100%
[4]; Alopecurus myosuroides, pre-emergence, Preemergence, 0 to 100 scale, 0 no effect, read-out: Plant response rating, Blackgrass
  pest or weed control at 31 g/ha: 100%
[4]; [11]
  pest or weed control at 62 g/ha: 100%
  pest or weed control at 125 g/ha: 100%
[5]; [6]
  pest or weed control at 31 g/ha: 0%
[5]; post-emergence, Postemergence
  pest or weed control at 62 g/ha: 0%
  pest or weed control at 125 g/ha: 40%
  pest or weed control at 250 g/ha: 50%
[5]; [7]
  pest or weed control at 31 g/ha: 0%
[5]; pre-emergence, Preemergence
  pest or weed control at 62 g/ha: 0%
  pest or weed control at 125 g/ha: 0%
  pest or weed control at 250 g/ha: 0%
